From US11207312B2, “Metallo-beta-lactamase inhibitors and methods of use thereof” (priority 2017, dated 2021)
Like-named read-outs stand apart in the source and are kept apart here.

How the values were obtained:
[1] = test system: P. aeruginosa MB9799 (efflux-, IMP-1 plasmid); type: cell-based, Pseudomonas aeruginosa; settings: efflux − (MB9799) strain; imipenem at 2 μg/mL; in the presence of a class A, C, D serine β-lactamase inhibitor closely related to relebactam
Outline: (§1)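 Isogenic P. aeruginosa PAO1 strains (efflux+ and multiple-efflux-pump-disrupted) carrying plasmid IMP-1, with inducible AmpC, tested by broth microdilution. Imipenem and/or ceftazidime fixed, usually at CLSI breakpoint, plus fixed class A/C β-lactamase inhibitor; titrated MBL inhibitor concentration restoring susceptibility recorded and compared between strains as efflux fold difference.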

[2] = test system: P. aeruginosa MB9798 (efflux+, IMP-1 plasmid); settings: for MB9798 MITC95 P. aeruginosa uM Efflux WT: efflux + (MB9798) strain, imipenem at 2 μg/mL, in the presence of a class A, C, D serine β-lactamase inhibitor closely related to relebactam; for Efflux ratio: fold difference between efflux+ (MB9798) and efflux− (MB9799) strains
Outline: as §1

[3] = test system: Klebsiella pneumoniae expressing VIM-1 (IHMA599644); type: cell-based; settings: with imipenem 1 μg/ml; 95% inhibition of bacterial growth
Outline: (§2)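 Clinical MBL-producing strains grown overnight at 35° C, diluted 1:100 into CAMHB, then exposed to test compound with imipenem at 1 μg/ml for 22–24 h at 35° C. Absorbance read-out; MITC95 is the lowest compound concentration giving 95% growth inhibition with imipenem.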

[4] = test system: Serratia marcescens expressing IMP-1 (CL5741); type: cell-based; settings: with imipenem 1 μg/ml; 95% inhibition of bacterial growth
Outline: as §2

[5] = test system: Escherichia coli expressing NDM-1 (CLB30016); type: cell-based; settings: with imipenem 1 μg/ml; 95% inhibition of bacterial growth
Outline: as §2

IMP-1 = IMP-1 (Serratia marcescens, UniProt P52699); experiment: biochemical; settings: CCF2-FA fluorescence assay, 2 hours at 25° C.; read-out: IMP1 IC50
Outline: (§3)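 Each enzyme (final 1 pM NDM-1, 2 pM IMP-1, 30 pM VIM-1) was incubated with test inhibitor (20 μM to 0.00063 μM) and 1.25 μM CCF2-FA for 2 hours at 25° C in zinc-supplemented phosphate buffer, pH 7. Fluorescence at 460 nm was then read and IC50 fitted with four parameters.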

VIM-1 = VIM-1 (Pseudomonas aeruginosa (strain ATCC 15692 / DSM 22644 / CIP 104116 / JCM 14847 / LMG 12228 / 1C / PRS 101 / PAO1), UniProt A0A0F7KYQ8); experiment: biochemical; settings: CCF2-FA fluorescence assay, 2 hours at 25° C.; read-out: VIM1 IC50
Outline: as §3

NDM-1 = NDM-1 (Klebsiella pneumoniae, UniProt C7C422); experiment: biochemical; type: biochemical; settings: CCF2-FA fluorescence assay, 2 hours at 25° C.
Outline: as §3

VIM-2 = VIM-2 (Escherichia coli, UniProt Q5U7L7); experiment: biochemical
[6] = CCF2-FA fluorescence assay, read-out: VIM2 IC50

Chain of NDM-1 (C7C422 whole entry, looked up, species assumed): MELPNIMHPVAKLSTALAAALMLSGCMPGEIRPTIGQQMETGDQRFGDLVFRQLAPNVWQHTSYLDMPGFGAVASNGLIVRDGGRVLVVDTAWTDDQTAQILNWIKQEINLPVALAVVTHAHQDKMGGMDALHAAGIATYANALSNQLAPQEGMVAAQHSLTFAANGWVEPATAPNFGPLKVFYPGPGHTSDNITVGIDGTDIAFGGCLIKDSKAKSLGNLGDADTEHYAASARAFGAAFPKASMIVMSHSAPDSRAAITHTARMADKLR
Chain of IMP-1 (P52699 whole entry, looked up, species assumed): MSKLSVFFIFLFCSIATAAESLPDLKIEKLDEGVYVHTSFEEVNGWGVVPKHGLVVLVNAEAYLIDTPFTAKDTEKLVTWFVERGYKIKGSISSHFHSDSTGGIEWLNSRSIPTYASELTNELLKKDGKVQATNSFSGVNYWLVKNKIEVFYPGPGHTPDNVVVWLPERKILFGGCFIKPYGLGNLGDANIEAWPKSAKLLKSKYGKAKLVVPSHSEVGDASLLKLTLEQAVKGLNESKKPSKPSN

Compound | MB9799 MITC95 P. aeruginosa uM Efflux Mutant [1] | MB9798 MITC95 P. aeruginosa uM Efflux WT [2] | Efflux ratio [2] | IHMA599644 K. pneumoniae MITC95 VIM [3] | CL5741 S. marcescens MITC95 IMP [4] | CLB30016 E. coli MITC95 NDM [5] | IC50 (IMP-1) | IC50 (VIM-1) | IC50 (NDM-1) | IC50 (VIM-2; [6]) | IC50 (VIM-2; VIM2 IC50, CCF2-FA fluorescence assay)
NCC1CCN(c2ccc(S(=O)(=O)N[C@H](CN)CO)c(S(N)(=O)=O)c2-c2nn[nH]n2)CC1 [Example 186, (R)-N1-(1-amino-3-hydroxypropan-2-yl)-4-(4-(aminomethyl)piperidin-1-yl)-3-(2H-tetrazol-5-yl)benzene-1,2-disulfonamide] | 0.78 µM | 1.56 µM | 2.00 | 1.56 µM | 1.56 µM | 3.13 µM | 40.6 nM | 2.85 nM | 18.7 nM | 68.7 nM | –
NCCC1CCN(c2ccc(S(=O)(=O)N[C@@H](CN)CO)c(S(N)(=O)=O)c2-c2nn[nH]n2)CC1 [Example 187, (S)-N1-(1-amino-3-hydroxypropan-2-yl)-4-(4-(2-aminoethyl)piperidin-1-yl)-3-(2H-tetrazol-5-yl)benzene-1,2-disulfonamide] | 0.39 µM | 0.39 µM | 1.00 | 0.78 µM | 0.78 µM | 0.78 µM | 0.24 nM | 0.03 nM | 0.13 nM | 0.49 nM | –
NCCC1CCN(c2ccc(S(=O)(=O)N[C@H](CN)CO)c(S(N)(=O)=O)c2-c2nn[nH]n2)CC1 [Example 188, (R)-N1-(1-amino-3-hydroxypropan-2-yl)-4-(4-(2-aminoethyl)piperidin-1-yl)-3-(2H-tetrazol-5-yl)benzene-1,2-disulfonamide] | 0.78 µM | 0.78 µM | 1.00 | 1.56 µM | 0.78 µM | 0.78 µM | 3.68 nM | 0.13 nM | 2.86 nM | 4.85 nM | –
NCC1CCN(c2ccc(S(=O)(=O)N[C@@H](CN)CO)c(S(N)(=O)=O)c2-c2nn[nH]n2)CC1 [Example 189, (S)-N1-(1-amino-3-hydroxypropan-2-yl)-4-(4-(aminomethyl)piperidin-1-yl)-3-(2H-tetrazol-5-yl)benzene-1,2-disulfonamide] | 0.39 µM | 0.78 µM | 2.00 | 0.78 µM | 0.78 µM | 0.39 µM | 0.77 nM | 0.06 nM | 0.3 nM | 2.31 nM | –
NCCNS(=O)(=O)C1CCN(c2ccc(S(=O)(=O)NC[C@H](O)CN)c(S(N)(=O)=O)c2-c2nn[nH]n2)CC1 [Example 190, (R)—N1-(3-amino-2-hydroxypropyl)-4-(4-(N-(2-aminoethyl)sulfamoyl)piperidin-1-yl)-3-(2H-tetrazol-5-yl)benzene-1,2-disulfonamide] | 0.78 µM | 0.78 µM | 1.00 | 1.56 µM | 0.78 µM | 3.13 µM | 0.61 nM | 0.09 nM | 0.67 nM | 0.85 nM | –
NS(=O)(=O)c1c(S(=O)(=O)N[C@@H]2CCNC2)ccc(N2CCNC2=S)c1-c1nn[nH]n1 [Example 191, (R)—N1-(pyrrolidin-3-yl)-3-(2H-tetrazol-5-yl)-4-(2-thioxoimidazolidin-1-yl)benzene-1,2-disulfonamide] | 1.56 µM | 6.25 µM | 4.00 | 3.13 µM | 1.56 µM | 0.78 µM | 25.2 nM | 0.21 nM | 0.94 nM | 1.15 nM | –
NC[C@@H](O)CNS(=O)(=O)c1ccc(N[C@H]2C[C@H](N)C2)c(-c2nnn[nH]2)c1S(N)(=O)=O [Example 192, (R)—N1-(3-amino-2-hydroxypropyl)-4-((3-aminocyclobutyl)amino)-3-(1H-tetrazol-5-yl)benzene-1,2-disulfonamide] | 3.13 µM | 6.25 µM | 2.00 | 6.25 µM | 3.13 µM | 1.56 µM | 97 nM | 67.5 nM | 66.3 nM | – | 200 nM
NCCCC1CCN(c2ccc(S(=O)(=O)NC[C@H](O)CN)c(S(N)(=O)=O)c2-c2nn[nH]n2)CC1 [Example 193, (R)-N1-(3-amino-2-hydroxypropyl)-4-(4-(3-aminopropyl)piperidin-1-yl)-3-(2H-tetrazol-5-yl)benzene-1,2-disulfonamide] | 0.78 µM | 0.78 µM | 1.00 | 1.56 µM | 1.56 µM | 1.56 µM | 0.67 nM | 0.075 nM | 0.48 nM | 0.75 nM | –
NC[C@@H](O)CNS(=O)(=O)c1ccc(N2CCC(N)CC2)c(-c2nn[nH]n2)c1S(N)(=O)=O [Example 194, (R)-N1-(3-amino-2-hydroxypropyl)-4-(4-aminopiperidin-1-yl)-3-(2H-tetrazol-5-yl)benzene-1,2-disulfonamide] | 0.78 µM | 0.78 µM | 1.00 | 0.78 µM | 0.20 µM | 0.39 µM | 16 nM | 0.17 nM | 26.5 nM | 14.9 nM | –
NC[C@@H](O)CNS(=O)(=O)c1ccc(N2CC[C@H](N)[C@H](F)C2)c(-c2nn[nH]n2)c1S(N)(=O)=O [Example 195, N1-((R)-3-amino-2-hydroxypropyl)-4-((3R,4S)-4-amino-3-fluoropiperidin-1-yl)-3-(2H-tetrazol-5-yl)benzene-1,2-disulfonamide] | 0.78 µM | 0.78 µM | 1.00 | 0.39 µM | 0.20 µM | 0.20 µM | 4.27 nM | 0.14 nM | 1.51 nM | 2.86 nM | –
NC(=O)[C@@H]1CN(c2ccc(S(=O)(=O)N[C@@H]3CCNC3)c(S(N)(=O)=O)c2-c2nn[nH]n2)CCN1 [Example 196, (S)-4-(4-(N—((R)-pyrrolidin-3-yl)sulfamoyl)-3-sulfamoyl-2-(2H-tetrazol-5-yl)phenyl)piperazine-2-carboxamide] | 0.78 µM | 2.34 µM | 3.00 | 1.17 µM | 0.20 µM | 0.29 µM | 3.26 nM | 0.44 nM | 0.72 nM | 1.7 nM | –
NC(=O)[C@H]1CN(c2ccc(S(=O)(=O)N[C@@H]3CCNC3)c(S(N)(=O)=O)c2-c2nn[nH]n2)CCN1 [Example 197, (R)-4-(4-(N-((R)-pyrrolidin-3-yl)sulfamoyl)-3-sulfamoyl-2-(2H-tetrazol-5-yl)phenyl)piperazine-2-carboxamide] | 1.56 µM | 3.13 µM | 2.00 | 1.56 µM | 0.39 µM | 0.29 µM | 9.95 nM | 0.74 nM | 1.44 nM | 1.89 nM | –
